Measurements taken from article PMC6032384 (International Journal of Molecular Sciences, 2018).
Read-outs that look alike come from different tables or passages of the source.

Assays:
HL-60 cells [1] = type: cell-based, human; settings: for DNA fragmentation (in words): positive controls, DOX 2 µM, 24 and 48 h
Procedure: The internucleosomal DNA fragmentation and cell cycle distribution were assessed in HL-60 cells after 24 and 48 h of incubation with the [Ru(PPh3)2(Thy)(bipy)]PF6 complex in a DNA content-based assay using the dye propidium iodide (PI) and flow cytometry (Table 3). All DNA with a subdiploid size (sub-G0/G1) were considered to be fragmented. At concentrations of 1, 2, and 4 μM, the complex led to, respectively, 19.4%, 30.1%, and 36.2% DNA fragmentation after 24 h of incubation and to 12.5%, 26.7%, and 58.2% DNA fragmentation after 48 h of incubation.
(§1) Light scattering features were determined by flow cytometry. The internucleosomal DNA fragmentation and cell cycle distribution were determined according to Nicoletti et al.. For apoptosis measurements, a FITC Annexin V Apoptosis Detection Kit I (BD Biosciences, San Jose, CA, USA) was used, and the analysis was performed, according to the manufacturer’s instructions. A protection assay using the pan-caspase inhibitor Z-VAD(OMe)-FMK (Cayman Chemical, Ann Arbor, MI, USA) was also evaluated. The mitochondrial transmembrane potential was determined by the retention of the dye rhodamine 123 [28]. The levels of ROS were measured, as previously described, using 2′,7′-dichlorofluorescin diacetate (DCF-DA, Sigma-Aldrich Co.). At least 1 × 10^4 events were recorded per sample using a BD LSRFortessa cytometer along with BD FACSDiva Software (BD Biosciences) and Flowjo Software 10 (Flowjo LCC, Ashland, OR, USA). The cellular debris was omitted from the analysis.

[2] = tested on: PBMC (human peripheral blood mononuclear cell); test: Alamar blue (AB) cytotoxicity assay, PBMC noncancerous cells; type: cell-based; settings: PBMC non-cancer cells, 72 h
[3] = tested on: MRC-5 (human lung fibroblast); test: Alamar blue (AB) cytotoxicity assay, MRC-5 noncancerous cells; type: cell-based; settings: MRC5 non-cancer cells, 72 h
HL-60 cells [4] = test: Annexin V-FITC/PI apoptosis assay by flow cytometry; type: cell-based, human
Procedure: Additionally, annexin V, which is a Ca^2+-dependent protein with high affinity for phosphatidylserine, was conjugated to a fluorochrome to detect phosphatidylserine exposure using flow cytometry. Since phosphatidylserine exposure precedes the loss of membrane integrity, annexin V staining was used along with the dye PI to identify early and late apoptotic cells, as well as necrotic cells. Therefore, annexin V-FITC/PI double staining was applied to HL-60 cells that were treated with the [Ru(PPh3)2(Thy)(bipy)]PF6 complex after 24 and 48 h of incubation, and the numbers of viable, early apoptotic, late apoptotic, and necrotic cells were quantified by flow cytometry (Figure 5).
Figure 5 Evaluation of the apoptosis induced by the [Ru(PPh3)2(Thy)(bipy)]PF6 complex (CRT) in HL-60 cells determined by flow cytometry using annexin V-FITC/PI staining after 24 and 48 h of incubation. (A) Representative flow cytometry dot plots. (B) Apoptotic cell quantification (annexin V-FITC positive cells). […] Data are presented as the mean ± S.E.M. of at the least three independent experiments. * p < 0.05 as compared with the negative control by ANOVA, followed by the Student Newman-Keuls test. […] Its quadrant percentages are just as hard to read: 24 h about Q1 0.640%, Q2 5.23%, Q4 85.6%, Q3 8.47%; 48 h about Q1 0.430%, Q2 3.07%, Q4 91.0%, Q3 5.52%.
as §1

HL-60 cells [5] = test: Cell morphology (May-Grunwald-Giemsa staining) and light scattering by flow cytometry; type: cell-based, human; settings: for Type of cell death: positive controls, DOX 2 µM, OXA 2.5 µM
[6] = tested on: BAD gene knockout immortalized mouse embryonic fibroblasts (BAD KO SV40 MEF); test: Alamar blue (AB) cytotoxicity assay, BAD KO SV40 MEF; type: cell-based; settings: 72 h
[7] = tested on: wild-type immortalized mouse embryonic fibroblasts (WT SV40 MEF); test: Alamar blue (AB) cytotoxicity assay, WT SV40 MEF; type: cell-based; settings: 72 h
HL-60 cells [8] = test: ROS levels (DCF-DA, flow cytometry); type: cell-based, human; settings: 1 or 3 h of incubation, data not shown
Procedure: The induction of ROS production is also an important mechanism for inducing apoptosis.
as §1

HL-60 cells [9] = test: Mitochondrial transmembrane potential (rhodamine 123, flow cytometry); type: cell-based, human; settings: rhodamine 123, 24 h
Procedure: (§2) Figure 6 Caspase-3 activity (A), assessed by a colorimetric assay after 48 h of incubation, and mitochondrial membrane potential (B), evaluated by flow cytometry using rhodamine 123 staining after 24 h of incubation, of HL-60 cells treatment with the [Ru(PPh3)2(Thy)(bipy)]PF6 complex (CRT). […] Data are presented as the mean ± S.E.M. of at the least three independent experiments. * p < 0.05 as compared with the negative control by ANOVA, followed by the Student Newman-Keuls test.
as §1, with “The cellular debris was omitted from the analysis.” left out

[10] = tested on: B16-F10, HepG2, K562, and HL-60; parameters: method as in doi:10.1039/C7NJ04368F; settings: small panel of cancer cells (B16-F10, HepG2, K562, and HL-60), previous study; cited from earlier work
HL-60 cells [11] = test: Protection assay with pan-caspase inhibitor Z-VAD(OMe)-FMK (annexin V-FITC/PI); type: cell-based, human; settings: 50 µM Z-VAD(OMe)-FMK 2 h, then 4 μM CRT 48 h
From the text: Loss of the mitochondrial transmembrane potential is a critical step in intrinsic apoptosis, and activation of caspase-3 (an executioner caspase) favors DNA fragmentation.
Figure 7 Prevention of the apoptosis induced by the [Ru(PPh3)2(Thy)(bipy)]PF6 complex (CRT) in HL-60 cells by a pan-caspase inhibitor (Z-VAD(OMe)-FMK), as assessed by flow cytometry using annexin V-FITC/PI staining. (A) Representative flow cytometry dot plots. (B) Apoptotic cell quantification (annexin V-FITC positive cells). The cells were pretreated for 2 h with 50 µM Z-VAD(OMe)-FMK and then incubated with 4 μM CRT for 48 h. […]
as §1, with “For apoptosis measurements, a FITC Annexin V Apoptosis Detection Kit I (BD Biosciences, San Jose, CA, USA) was used, and the analysis was performed, according to the manufacturer’s instructions.” left out, “The cellular debris was omitted from the analysis.” left out

HL-60 cells [12] = settings: TBE
tested cancer cell lines = test: Alamar blue cytotoxicity, summary over the tested cancer cell lines; type: cell-based; settings: AB assay, 72 h, most of the tested cancer cell lines
caspase-3 in HL-60 cells = test: Caspase-3 colorimetric assay; type: cell-based, human; settings: 48 h
Procedure: as §2
The cell lines that were used in this study were obtained from the American Type Culture Collection (ATCC) and were cultured, as described previously. Primary PBMCs were obtained with informed consent (# 031019/2013). All the cells were free of contamination, and the cell viability was determined by the TBE or AB assay, which were performed following the procedure that was described previously. The cell morphology analysis was performed using cytospin and May-Grunwald-Giemsa staining as described previously. To investigate caspase-3 activation, a caspase-3 colorimetric assay kit (Sigma-Aldrich Co.) was used.

## O=C1[O][Pt]2([NH][C@@H]3CCCC[C@H]3[NH]2)[O]C1=O [OXA, Oxaliplatin, reference compound]
HL-60 cells [1]; 2.5 µM, 24 h
  DNA content G0/G1: 31.4 ± 3.0 %
  DNA content G2/M: 26.0 ± 3.6 %
  DNA content S: 11.6 ± 2.3%
  DNA content Sub-G0/G1 (DNA fragmentation): 21.9 ± 3.3 %
HL-60 cells [1]; 2.5 µM, 48 h
  DNA content G0/G1: 42.9 ± 2.8 %
  DNA content G2/M: 19.1 ± 3.3%
  DNA content S: 14.2 ± 1.2%
  DNA content Sub-G0/G1 (DNA fragmentation): 18.4 ± 4.4 %
HL-60 cells [1]; OXA 2.5 µM
  Cell cycle arrest: cell cycle arrest at the G2/M phase
  DNA fragmentation (in words): induced DNA fragmentation
[2]
  IC50: 9.4 µM
[3]
  IC50: 1.3 µM
HL-60 cells [4]; annexin V-FITC/PI, 24 and 48 h
  Percentage of apoptotic cells (early apoptotic cells + late apoptotic cells): caused an increase
HL-60 cells [5]
  Type of cell death: caused cell death by apoptosis

## O=c1[nH]cc(F)c(=O)[nH]1 [5-fluorouracil]
[6]; Mus musculus, Fibroblast
  IC50: 11.2 µM
[7]; Mus musculus, Fibroblast
  IC50: 5.7 µM

## Cc1c[nH]c(=O)[n-]c1=O.F[P-](F)(F)(F)(F)F.[Ru+2].c1ccc(-c2ccccn2)nc1.c1ccc(P(c2ccccc2)c2ccccc2)cc1.c1ccc(P(c2ccccc2)c2ccccc2)cc1 [CRT, [Ru(PPh3)2(Thy)(bipy)]PF6]
HL-60 cells [8]
  ROS levels: did not induce a significant increase
HL-60 cells [9]
  Mitochondrial transmembrane potential: caused the loss of the mitochondrial transmembrane potential
[10]
  IC50: < 2 µM
HL-60 cells [11]
  Effect of pan-caspase inhibitor Z-VAD(OMe)-FMK on the complex-induced increase in apoptotic cells: partially prevented
HL-60 cells [12]; 1 μM, 24 h
  Reduction of the number of viable cells: 32.5%
HL-60 cells [12]; 1 μM, 48 h
  Reduction of the number of viable cells: 62.6%
HL-60 cells [12]; 2 μM, 24 h
  Reduction of the number of viable cells: 49.1%
HL-60 cells [12]; 2 μM, 48 h
  Reduction of the number of viable cells: 66.6%
HL-60 cells [12]; 4 μM, 24 h
  Reduction of the number of viable cells: 59.1%
HL-60 cells [12]; 4 μM, 48 h
  Reduction of the number of viable cells: 73.4%
HL-60 cells [12]; 1, 2 and 4 μM, 24 and 48 h
  Number of nonviable cells: No significant increase
HL-60 cells [1]; 1 µM, 24 h
  DNA content G0/G1: 30.5 ± 4.8 %
  DNA content G2/M: 18.5 ± 0.7%
  DNA content S: 11.5 ± 1.7%
  DNA content Sub-G0/G1 (DNA fragmentation): 19.4 ± 3.9 %
HL-60 cells [1]; 1 µM, 24 h, listed as [Ru(PPh3)2(Thy)(bipy)]PF6 complex
  DNA content Sub-G0/G1 (DNA fragmentation): 19.4%
HL-60 cells [1]; 1 µM, 48 h
  DNA content G0/G1: 41.2 ± 9.6 %
  DNA content G2/M: 10.8 ± 2.5%
  DNA content S: 11.2 ± 2.4%
  DNA content Sub-G0/G1 (DNA fragmentation): 12.5 ± 3.5 %
HL-60 cells [1]; 1 µM, 48 h, listed as [Ru(PPh3)2(Thy)(bipy)]PF6 complex
  DNA content Sub-G0/G1 (DNA fragmentation): 12.5%
HL-60 cells [1]; 2 µM, 24 h
  DNA content G0/G1: 38.7 ± 2.2 %
  DNA content G2/M: 17.9 ± 4.4%
  DNA content S: 7.8 ± 1.5 %
  DNA content Sub-G0/G1 (DNA fragmentation): 30.1 ± 7.9 %
HL-60 cells [1]; 2 µM, 24 h, listed as [Ru(PPh3)2(Thy)(bipy)]PF6 complex
  DNA content Sub-G0/G1 (DNA fragmentation): 30.1%
HL-60 cells [1]; 2 µM, 48 h
  DNA content G0/G1: 42.6 ± 4.9 %
  DNA content G2/M: 14.4 ± 2.5%
  DNA content S: 10.5 ± 0.8 %
  DNA content Sub-G0/G1 (DNA fragmentation): 26.7 ± 7.0 %
HL-60 cells [1]; 2 µM, 48 h, listed as [Ru(PPh3)2(Thy)(bipy)]PF6 complex
  DNA content Sub-G0/G1 (DNA fragmentation): 26.7%
HL-60 cells [1]; 4 µM, 24 h
  DNA content G0/G1: 36.3 ± 3.1 %
  DNA content G2/M: 13.2 ± 4.1%
  DNA content S: 10.4 ± 2.4%
  DNA content Sub-G0/G1 (DNA fragmentation): 36.2 ± 9.5 %
HL-60 cells [1]; 4 µM, 24 h, listed as [Ru(PPh3)2(Thy)(bipy)]PF6 complex
  DNA content Sub-G0/G1 (DNA fragmentation): 36.2%
HL-60 cells [1]; 4 µM, 48 h
  DNA content G0/G1: 28.4 ± 5.9 %
  DNA content G2/M: 5.5 ± 2.6 %
  DNA content S: 4.4 ± 1.2 %
  DNA content Sub-G0/G1 (DNA fragmentation): 58.2 ± 8.8 %
HL-60 cells [1]; 4 µM, 48 h, listed as [Ru(PPh3)2(Thy)(bipy)]PF6 complex
  DNA content Sub-G0/G1 (DNA fragmentation): 58.2%
[6]
  IC50: 2.4 µM
Tested cancer cell lines
  IC50: < 3 µM
[2]
  IC50: 1.7 µM
[7]
  IC50: 2.2 µM
caspase-3 in HL-60 cells
  Caspase-3 activity: induced activation of caspase-3
[3]
  IC50: 11.5 µM
HL-60 cells [4]; NAC pretreatment, data not shown
  Effect of pretreatment with antioxidant N-acetyl-L-cysteine (NAC) on the increase in apoptotic cells: did not prevent
HL-60 cells [4]; annexin V-FITC/PI, 24 and 48 h
  Percentage of apoptotic cells (early apoptotic cells + late apoptotic cells): significant increase
  Percentage of necrotic cells: No significant increase
HL-60 cells [5]; May-Grunwald-Giemsa-stained cells, 24 and 48 h
  Cell morphology: cell morphology changes that were associated with apoptosis
HL-60 cells [5]; flow cytometry, 24 and 48 h
  Forward light scatter (FSC), cell shrinkage: decrease
  Side scatter (SCC), nuclear condensation: increase

## COc1cccc2c1C(=O)c1c(O)c3c(c(O)c1C2=O)C[C@@](O)(C(=O)CO)C[C@@H]3O[C@H]1C[C@H](N)[C@H](O)[C@H](C)O1 [DOX, Doxorubicin, reference compound]
HL-60 cells [12]; 2 μM, 24 h
  Reduction of the number of viable cells: 58.0%
HL-60 cells [12]; 2 μM, 48 h
  Reduction of the number of viable cells: 88.1%
HL-60 cells [1]; 2 µM, 24 h
  DNA content G0/G1: 19.9 ± 2.5 %
  DNA content G2/M: 8.9 ± 1.5 %
  DNA content S: 6.6 ± 1.6 %
  DNA content Sub-G0/G1 (DNA fragmentation): 58.6 ± 2.5 %
HL-60 cells [1]; 2 µM, 48 h
  DNA content G0/G1: 21.9 ± 3.0 %
  DNA content G2/M: 3.8 ± 0.9 %
  DNA content S: 6.5 ± 0.6 %
  DNA content Sub-G0/G1 (DNA fragmentation): 65.4 ± 2.8 %
HL-60 cells [1]; OXA 2.5 µM
  DNA fragmentation (in words): induced DNA fragmentation
[6]; Mus musculus, Fibroblast
  IC50: 1.3 µM
[2]; Homo sapiens
  IC50: 5.1 µM
[7]; Mus musculus, Fibroblast
  IC50: 0.8 µM
[3]; Homo sapiens
  IC50: 1.5 µM
HL-60 cells [4]; annexin V-FITC/PI, 24 and 48 h
  Percentage of apoptotic cells (early apoptotic cells + late apoptotic cells): caused an increase
HL-60 cells [5]
  Type of cell death: caused cell death by apoptosis
